Assay results published in paper PMC12677844, “Profiling Inhibitor Scaffolds for the Cancer Target Jumonji‐C Domain‐Containing Protein 6” (Chemmedchem, 2025).
“And” between values parts separate entries of the source, which are not always exact repeats. Equal entries are not always repeated. Where two headings read alike, the source gives them in different places.

Assays:
[1] = tested on: JMJD6; set-up: method as in PMID 34581506; conditions: 10 µM JMJD6, 100 µM LUC7L2_267–278; ref [35]; read-out: reported IC50 (JMJD6, MALDI‐TOF MS) (converted); cited from earlier work
[2] = target: T1, full‐length His6‐JMJD6 (Homo sapiens, UniProt Q6NYC1); experiment: JMJD6 SPE–MS inhibition assay (BRD4_511–550 hydroxylation); format: biochemical; conditions: for IC50: His6‐JMJD6 0.05 µM, 2OG 100 µM, FAS 2 µM, BRD4_511–550 1 µM, L‐ascorbic acid 100 µM, means of two independent runs (mean ± SD)
T1 construct: Isolated recombinant full‐length human JMJD6 with a N‐terminal His6‐tag; made in house; host or cells: Escherichia coli BL21 (DE3)
Description: Co‐substrate concentrations were chosen based on reported SPE–MS kinetic parameters for the JMJD6‐catalyzed BRD4_511–550 monohydroxylation reaction.^[ [56] ^] […] Since JMJD6 has a relatively high 2OG Kmapp , the JMJD6 SPE–MS inhibition assay employs a 2OG concentration which is relatively high compared to most other 2OG oxygenase SPE–MS assays, possibly more accurately reflecting cellular 2OG concentrations.^[ [59] ^, [60] ^] Likely saturating concentrations of LAA (100 µM) and FAS (2 µM) were used.
JMJD6 catalyzes oxidation of BRD4_511–550 to give multiple hydroxylation products,^[ [56] ^] an observation potentially complicating data analysis.
Isolated recombinant full‐length human JMJD6 with a N‐terminal His6‐tag was produced in Escherichia coli BL21 (DE3) cells and purified as reported.^[ [1] ^, [56] ^] […] Purified His6‐JMJD6 was stored at −78 °C; fresh aliquots were used for all JMJD6 assays.
DMSO and 2,4‐PDCA (final assay concentration: 500 µM) were used as negative and positive inhibition controls, respectively. Each reaction was performed in technical duplicates in adjacent wells of the assay plates.
Cosubstrate/cofactor stock solutions (L‐ascorbic acid, LAA: 50 mM in Milli‐Q Ultrapure grade water; 2‐oxoglutarate, 2OG: 20 mM in Milli‐Q Ultrapure grade water; ammonium iron(II) sulfate hexahydrate, FAS, (NH4)2Fe(SO4)2·6H2O: […] in 20 mM aqueous HCl diluted to 1 mM in Milli‐Q Ultrapure grade water) were freshly prepared from commercial solids (Sigma–Aldrich) on the day of the experiment. BRD4_511–550 ([…]) was synthesized by solid‐phase peptide synthesis and was purified by GL Biochem (Shanghai) Ltd (Shanghai, China). Stock solutions of BRD4_511–550 (10 mM in water) were stored at −20 °C.
The plates were centrifuged (1000 rpm, 5 s) and incubated for 15 min at ambient temperature. The substrate mixture (2 × final concentration), containing BRD4_511–550 (2 µM), LAA (200 µM), 2OG (200 µM), and FAS (4 µM) in Tris buffer (50 mM; pH 7.5), was then dispensed across the plates (25 µL per well) using the multidrop dispenser. The plates were centrifuged (1000 rpm, 5 s) and incubated for 20 min at ambient temperature. The enzyme reaction was then stopped by the addition of 10%v/v aqueous formic acid (5 μL per well) using a 16‐channel electronic pipette (ThermoFischer Scientific). The plates were then centrifuged (1000 rpm, 30 s) and analyzed by MS.
Assay samples were aspirated under vacuum for 0.4 s and then loaded onto a C4 SPE cartridge. After loading, the C4 SPE cartridge was washed with 0.1%v/v aqueous formic acid to remove nonvolatile buffer salts (5 s, 1.5 mL min^−1). BRD4_511–550 and the corresponding hydroxylated product peptides were eluted from the SPE cartridge with 0.1%v/v aqueous formic acid in 75/25v/v acetonitrile/water into the mass spectrometer (5 s, 1.6 mL min^−1); the SPE cartridge was subsequently re‐equilibrated with 0.1%v/v aqueous formic acid (1 s, 1.25 mL min^−1).
Peaks corresponding to the m/z + 5 charge states of BRD4_511–550 and the corresponding mono‐ and dihydroxylated product peptides were extracted from the ion chromatogram and integrated using RapidFire Integrator 4.3.0 (Agilent).
From the raw data, dose–response curves (normalized to the 2,4‐PDCA and DMSO controls) were obtained by nonlinear regression (GraphPad Prism 5), which were used to determine IC50 values.

[3] = tested on: JMJD6; set-up: method as in earlier work; conditions: 10 µM JMJD6, 100 µM LUC7L2_267–278; ref [22]; read-out: reported IC50 (JMJD6, LC–MS) (converted); cited from earlier work
[4] = tested on: JMJD6; set-up: method as in PMID 33991627; conditions: substrate other than BRD4_511–550, 2OG 10 μM, JMJD6 10 µM; ref [33]; read-out: reported IC50 (JMJD6, Succinate‐Glo) (converted); cited from earlier work
[5] = tested on: PHD2; set-up: method as in PMID 39291299; conditions: isolated PHD2; ref [100]; cited from earlier work
[6] = tested on: JMJD6; set-up: method as in PMID 31637004; conditions: assay conditions not described; ref [20]; read-out: reported IC50 (JMJD6) (converted); cited from earlier work
[7] = tested on: JMJD6; set-up: method as in PMID 31857835; conditions: fluorescence‐based assay; ref [32]; read-out: reported IC50 (JMJD6‐catalyzed histone dimethylarginine N‐demethylation); cited from earlier work
[8] = tested on: JMJD6; set-up: method as in PMID 35969736; conditions: Succinate‐Glo and MALDI‐TOF assays; ref [31]; read-out: reported IC50 (JMJD6 lysine hydroxylation); cited from earlier work

| Compound | IC50 [1] | IC50 ([2]; read-out: IC50 (JMJD6, SPE–MS)) | other results |
| --- | --- | --- | --- |
| O=C(O)c1ccnc(C(=O)O)c1 [2,4‐PDCA, pyridine‐2,4‐dicarboxylic acid] | ~13 µM and 13 µM | ~1.6 µM and 1.6 µM | IC50 [3]: ~5.4 µM and 5.4 µM |
| O=C(N/N=C/c1c(O)ccc2ccccc12)c1ccncc1 [AS‐8351] | – | ~6.9 µM and 6.9 µM | – |
| O=C(O)Cc1csc(=NC(=O)CS(=O)(=O)Cc2ccc3ccccc3c2)n1O [BNS] | – | ~0.16 µM and 0.16 µM | – |
| CC(C)c1c(-c2ccccc2)[nH]c2c(C#N)cnn2c1=O [CPI‐455] | – | > 50 µM | – |
| O=C(O)CC(O)(CC(=O)O)C(=O)O [Citrate] | 987 µM | > 50 µM | – |
| O=C(O)CCC(=O)NO [Compound 1] | 25 µM | ~3.6 µM and 3.6 µM | – |
| Cn1ccc(-c2cc(C(=O)OCC(F)(F)F)ccn2)n1 [Compound 7p] | – | ~4.2 µM and 4.2 µM | IC50 [4]: 0.68 µM |
| Cn1ccc(-c2cc(C(=O)O)ccn2)n1 [Compound 10a] | – | ~0.07 µM and 0.07 µM | IC50 [4]: ~1.7 µM and 1.7 µM; fold more potent than Compound 7p in inhibiting JMJD6 ([2]; SPE–MS IC50 comparison): ≈ 60 fold; ligand efficiency (LE) ([2]; from JMJD6 SPE–MS potency): 0.67; fold less potent in Succinate‐Glo assay than in SPE–MS assay ([2]; reported Succinate‐Glo IC50 versus SPE–MS IC50): ≈ 25 fold |
| O=C(O)c1ccncc1NCc1ccco1 [Compound 34] | – | ~2.6 µM and 2.6 µM | – |
| CC(C)(NC(=O)c1c(O)c2ccccc2n(OCc2cscn2)c1=O)C(=O)O [Compound 48] | – | ~7.1 µM and 19 µM | – |
| CN(C)NC(=O)CCC(=O)O [Daminozide] | 94 µM | – | IC50 ([2]; IC50 (JMJD6, SPE–MS)): > 50 µM |
| O=C(O)CNC(=O)C1C(=O)N(C2CCCCC2)C(=O)N(C2CCCCC2)C1=O [Daprodustat] | 10 µM | – | IC50 ([2]; IC50 (JMJD6, SPE–MS)): ~28 µM and 28 µM |
| O=C(O)CNC(=O)c1c(O)c2ccccc2n(OCC2CC2)c1=O [Desidustat] | – | ~2.7 µM and 2.7 µM | IC50 [5]: 1.3 µM |
| O=C(O)CC[C@@H](O)C(=O)O [D‐2‐Hydroxyglutarate] | 622 µM | > 50 µM | – |
| O=c1c2ccccc2[se]n1-c1ccccc1 [Ebselen] | – | > 50 µM | – |
| O=C(O)CNC(=O)c1c(O)cc(CCc2ccccc2)n2ncnc12 [Enarodustat] | – | ~1.2 µM and 1.2 µM | IC50 [5]: 0.38 µM |
| O=C(O)/C=C/C(=O)O [Fumarate] | 165 µM | > 50 µM | – |
| O=C(O)CCNc1cc(N2CCc3ccccc3CC2)nc(-c2ccccn2)n1 [GSK‐J1] | – | > 50 µM | – |
| O=C(O)c1ccc(O)c2ncccc12 [IOX1] | ~10 µM and 10 µM | ~6.4 µM and 6.4 µM | – |
| O=C(O)CNC(=O)c1c(O)c2ccccc2n(Cc2ccccc2)c1=O [IOX2] | – | ~19 µM and 7.1 µM | – |
| O=C(NCC1CCC(C(F)(F)F)CC1)c1cnc(-n2cccn2)cc1O (stereo not drawn) [IOX5] | – | > 50 µM | – |

| Compound | IC50 [1] | IC50 ([2]; read-out: IC50 (JMJD6, SPE–MS)) | other results |
| --- | --- | --- | --- |
| O=C(O)/C=C/C(=O)N(O)CCCCNCc1ccc(COC(=O)Nc2cccc3ccccc23)cc1 [JMJD histone demethylase inhibitor III] | – | ~0.1 µM and 0.1 µM | – |
| O=C(O)c1cnn(-c2nc3cc(OC(F)(F)F)c(Cl)cc3[nH]2)c1 [JNJ‐42041935] | – | > 50 µM | – |
| CC(C)c1cc(C(=O)N2CC[C@@H](NC(=O)C3CC3)C2)[nH]n1 [KDM5A‐IN‐1] | – | > 50 µM | – |
| O=C(O)CC[C@H](O)C(=O)O [L‐2‐Hydroxyglutarate] | 871 µM | > 50 µM | – |
| COc1ccc(C(NC(=O)c2cnc(-c3cccnn3)nc2O)c2ccc(OC)cc2)cc1 [MK‐8617] | – | > 50 µM | – |
| CN(C)CCCNC(=O)c1ccc(-c2cc(O)c3ncccc3c2)cc1 [ML324] | – | ~1.4 µM and 1.4 µM | – |
| O=C(O)CC(O)C(=O)O (stereo not drawn) [Malate] | 5100 µM | – | IC50 ([2]; IC50 (JMJD6, SPE–MS)): > 50 µM |
| C/C(=C\C(=O)O)C(=O)O [Mesaconate] | – | > 50 µM | – |
| O=c1c(-n2ccnn2)c[nH]n1-c1cc(N2CCOCC2)ncn1 [Molidustat] | 74 µM | ~20 µM and 20 µM | – |
| O=C(O)C(=O)N[C@H](Cc1ccccc1)C(=O)O [NOFD, N‐oxalyl‐D‐phenylalanine] | – | > 50 µM | – |
| O=C(O)CNC(=O)C(=O)O [NOG, N‐oxalylglycine] | 296 µM | > 50 µM | – |
| O=C(O)CC(=O)C(=O)O [Oxaloacetate] | 204 µM | > 50 µM | – |
| CC(=O)C(=O)O [Pyruvate] | 2380 µM | > 50 µM | – |
| CN(c1ccccc1)c1ccc2c(c1)CCC[C@H]2CNc1cnccc1C(=O)O [QC6352] | – | ~2.8 µM and 2.8 µM | – |
| Cc1nc(C(=O)NCC(=O)O)c(O)c2ccc(Oc3ccccc3)cc12 [Roxadustat] | 23 µM | > 50 µM | – |
| Oc1ccnc(N/N=C/c2ccccc2O)n1 [SKLB325] | – | ~6.7 µM and 6.7 µM | IC50 [6]: 0.78 µM |
| O=C(O)CCC(=O)O [Succinate] | 261 µM | > 50 µM | – |
| O=C(O)CNC(=O)C1=C(O)CCN(Cc2ccc(Oc3ccc(Cl)cc3)nc2)C1=O [TP0463518] | – | ~1.1 µM and 1.1 µM | – |
| O=C(O)CNC(=O)c1ncc(-c2cccc(Cl)c2)cc1O [Vadadustat] | 7 µM | ~17 µM and 17 µM | – |
| Cc1ccc2oc(=O)c(-c3nc4cnccc4[nH]3)cc2c1 [WL12] | – | > 50 µM | IC50 [7]: ~0.22 µM and 0.22 µM; IC50 [8]: > 100 µM |
